The text below walks through data of patent US10966426B2, “Herbicidal compositions comprising phenylpyrimidines” (BASF SE, priority 2016, dated 2021).

“And” between values parts separate entries of the source, which are not always exact repeats. Equal entries are not always repeated.

Common to all, as to assay type: in vivo
The test system of one experiment is Digitaria sanguinalis. Briefly: greenhouse post-emergence treatment, DIGSA. The settings on record: 20 DAT; for % activity: DIGSA. As to the method: (§1) The culture containers used were plastic pots containing loamy sand with approximately 3.0% of humus as substrate. The seeds of the test plants were sown separately for each species.
(§2) To this end, the test plants were either sown directly, and grown in the same containers, or they were first grown separately as seedlings and transplanted into the test containers a few days prior to treatment.
(§3) Depending on the species, the plants were kept at 10-25° C. and 20-35° C., respectively.
(§4) The test period extended over 2 to 4 weeks. During this time, the plants were tended and their response to the individual treatments was evaluated.
(§5) Evaluation was carried out using a scale from 0 to 100. 100 means no emergence of the plants, or complete destruction of at least the above-ground parts, and 0 means no damage or normal course of growth. A good herbicidal activity is given at values of at least 70, and very good herbicidal activity is given at values of at least 85.
(§6) In the examples, the solvent used was water.
(§7) In the examples below, using the method of S. R. Colby (1967) “Calculating synergistic and antagonistic responses of herbicide combinations”, Weeds 15, p. […] E=X+Y−(X·Y/100) where X=effect in percent using herbicide A at an application rate a; • Y=effect in percent using herbicide B at application rate b; • E=expected effect (in %) of herbicide A+herbicide B at application rates a+b.

The next experiment relates to Bromus sterilis. Kind of experiment: greenhouse post-emergence treatment, BROST. The following applies: 20 DAT; for % activity: BROST. Here is the method:
as §1, §2, §3, §4, §5, §6, §7

Another experiment has as its system Setaria viridis. Briefly: greenhouse post-emergence treatment, SETVI. The following applies: 20 DAT; for % activity: SETVI. As to the method: as §1, §2, §3, §4, §5, §6, §7
The next experiment relates to Lolium multiflorum. Kind of experiment: greenhouse post-emergence treatment, LOLMU. The settings on record: 20 DAT; for % activity: LOLMU. As to the method:
as §1, §2, §3, §4, §5, §6, §7

For another experiment, the system named is Brachiaria decumbens. Kind of experiment: greenhouse post-emergence treatment, BRADC. The settings on record: 20 DAT; for % activity: BRADC. Here is the method: as §1
(§8) For the post-emergence treatment, the test plants were grown to a plant height of from 3 to 15 cm, depending on the plant habit, and only then treated with the active compounds which had been suspended or emulsified in water. To this end, the test plants were either sown directly, and grown in the same containers, or they were first grown separately as seedlings and transplanted into the test containers a few days prior to treatment.
as §3, §4, §5
(§9) The respective stated components A and B, and if appropriate, C were formulated as a 10% by weight strength emulsion concentrate and, with addition of the amount of solvent system, introduced into the spray liquor used for applying the active compound. In the examples, the solvent used was water.
(§10) In the examples below, using the method of S. R. Colby (1967) “Calculating synergistic and antagonistic responses of herbicide combinations”, Weeds 15, p. 22ff., the value E, which is expected if the activity of the individual active compounds is only additive, was calculated. E=X+Y−(X·Y/100) where X=effect in percent using herbicide A at an application rate a; • Y=effect in percent using herbicide B at application rate b; • E=expected effect (in %) of herbicide A+herbicide B at application rates a+b.

A further experiment relates to Papaver rhoeas. Briefly: greenhouse post-emergence treatment, PAPRH. The following applies: 20 DAT. As to the method:
as §1, §8, §3, §4, §5, §9, §10

The next experiment has as its system Galium aparine. Kind of experiment: greenhouse post-emergence treatment, GALAP. The following applies: GALAP, 20 DAT. Here is the method:
as §1, §8, §3, §4, §5, §9, §10

Another experiment has as its system Ambrosia elatior. Briefly: greenhouse post-emergence treatment, AMBEL. The settings on record: 20 DAT. As to the method:
as §1, §8, §3, §4, §5, §9, §10

The test system of the next experiment is Avena fatua. Briefly: greenhouse post-emergence treatment, AVEFA. The following applies: Avena fatua, 480 h, 20 DAT. As to the method:
as §1, §2, §3, §4, §5, §6, §7

Another experiment relates to Alopecurus myosuroides. Briefly: greenhouse post-emergence treatment, ALOMY. The following applies: Alopecurus myosuroides, 480 h, 20 DAT, ALOMY. Here is the method: as §1, §2, §3, §4, §5, §6, §7
The subject of a further experiment is Matricaria chamomilla. Kind of experiment: greenhouse post-emergence treatment, MATCH. The following applies: MATCH, 20 DAT. Here is the method:
as §1, §8, §3, §4, §5, §9, §10

The mark [1] stands for this setting: solo pyroxsulam (SC 30 g/l) 7.5 gai/ha.
[2] abbreviates: solo pyroxsulam (SC 30 g/l) 1.875 gai/ha.
Setting [3] is: solo pyroxsulam (SC 30 g/l) 3.75 gai/ha.

As for `CCS(=O)(=O)c1nc2ccccn2c1S(=O)(=O)NC(=O)Nc1nc(OC)cc(OC)n1` [sulfosulfuron], the inhibition at […] in the experiment on Digitaria sanguinalis (Digitaria sanguinalis, 480 h, sulfosulfuron solo 1.5 gai/ha) turned out to be 0%; with Bromus sterilis (Bromus sterilis, 480 h, sulfosulfuron solo 1.5 gai/ha) it was 0%; in the experiment on Setaria viridis (Setaria viridis, 480 h, sulfosulfuron solo 1.5 gai/ha) it was 50%; in the experiment on Lolium multiflorum (Lolium multiflorum, 480 h, sulfosulfuron solo 1.5 gai/ha) it was 0%; in the experiment with Brachiaria decumbens (Urochloa decumbens, 480 h, sulfosulfuron solo 1.5 gai/ha), 20%; in the experiment with Papaver rhoeas (Papaver rhoeas, 480 h, sulfosulfuron solo 1.5 gai/ha), 25%. Besides, the inhibition at […] worked out at 70% in the experiment on Ambrosia elatior (Ambrosia artemisiifolia, 480 h, sulfosulfuron solo 1.5 gai/ha) and 0% with Avena fatua (sulfosulfuron solo 1.5 gai/ha). The inhibition at 3 g/ha in the experiment with Digitaria sanguinalis (Digitaria sanguinalis, 480 h, sulfosulfuron solo 3 gai/ha) was 20%; in the experiment on Bromus sterilis (Bromus sterilis, 480 h, sulfosulfuron solo 3 gai/ha), 50%; with Lolium multiflorum (Lolium multiflorum, 480 h, sulfosulfuron solo 3 gai/ha), 0%; with Papaver rhoeas (Papaver rhoeas, 480 h, sulfosulfuron solo 3 gai/ha), 80%; with Avena fatua (sulfosulfuron solo 3 gai/ha), 0%. Besides, the inhibition at 12 g/ha turned out to be 65% with Digitaria sanguinalis (Digitaria sanguinalis, 480 h, sulfosulfuron solo 12 gai/ha); 70% in the experiment with Bromus sterilis (Bromus sterilis, 480 h, sulfosulfuron solo 12 gai/ha); 75% in the experiment on Setaria viridis (Setaria viridis, 480 h, sulfosulfuron solo 12 gai/ha); 35% in the experiment with Lolium multiflorum (Lolium multiflorum, 480 h, sulfosulfuron solo 12 gai/ha); 80% in the experiment with Brachiaria decumbens (Urochloa decumbens, 480 h, sulfosulfuron solo 12 gai/ha). In addition, the inhibition at 6 g/ha is 65% in the experiment with Setaria viridis (Setaria viridis, 480 h, sulfosulfuron solo 6 gai/ha) and 10% in the experiment on Lolium multiflorum (Lolium multiflorum, 480 h, sulfosulfuron solo 6 gai/ha). For the same compound, the pest or weed control at […] in the experiment on Papaver rhoeas (Papaver rhoeas, 480 h, PAPRH, solo sulfosulfuron (WG 80%) 1.5 gai/ha) is 25%; in the experiment on Galium aparine (Galium aparine, 480 h, solo sulfosulfuron (WG 80%) 1.5 gai/ha), 65%. For the same compound, the pest or weed control at 3 g/ha with Galium aparine (Galium aparine, 480 h, solo sulfosulfuron (WG 80%) 3 gai/ha) turned out to be 85%.
With `CCc1cc(C)cc(CC)c1-c1c(OC(=O)C(C)(C)C)n2n(c1=O)CCOCC2` [pinoxaden], in the experiment with Alopecurus myosuroides (pinoxaden solo 7.5 gai/ha), the inhibition at […] stood at 75%. Also, the inhibition at 60 g/ha with Alopecurus myosuroides (pinoxaden solo 60 gai/ha) amounted to 94%. The pest or weed control at […] came to 48% with Alopecurus myosuroides (solo, EC 50 g/l, 7.5 gai/ha) and 33% in the experiment on Avena fatua (solo, EC 50 g/l, AVEFA, 7.5 gai/ha).
Take `COc1nc(C)nc(NC(=O)NS(=O)(=O)c2cc(I)ccc2C(=O)O)n1` [iodosulfuron]: the inhibition at 1.25 g/ha in the experiment on Digitaria sanguinalis (Digitaria sanguinalis, 480 h, iodosulfuron solo 1.25 gai/ha) was found to be 0%; in the experiment on Bromus sterilis (Bromus sterilis, 480 h, iodosulfuron solo 1.25 gai/ha), 0%. The inhibition at […] with Digitaria sanguinalis (Digitaria sanguinalis, 480 h, iodosulfuron solo 2.5 gai/ha) amounted to 20%; in the experiment on Bromus sterilis (Bromus sterilis, 480 h, iodosulfuron solo 2.5 gai/ha), 0%; in the experiment on Brachiaria decumbens (Urochloa decumbens, 480 h, iodosulfuron solo 2.5 gai/ha) it was 20%. In addition, the inhibition at 5 g/ha in the experiment with Digitaria sanguinalis (Digitaria sanguinalis, 480 h, iodosulfuron solo 5 gai/ha) is 50%; in the experiment on Bromus sterilis (Bromus sterilis, 480 h, iodosulfuron solo 5 gai/ha), 0%; in the experiment with Brachiaria decumbens (Urochloa decumbens, 480 h, iodosulfuron solo 5 gai/ha), 30%.
Turning to `COc1cc(OC)n2nc(NS(=O)(=O)c3c(C(F)(F)F)ccnc3OC)nc2n1` [pyroxsulam], the “% activity” value in the experiment on Digitaria sanguinalis (setting [1]) was 80%; in the experiment on Digitaria sanguinalis (pyroxsulam solo 1.875 gai/ha) it was 65%; with Digitaria sanguinalis (pyroxsulam solo 3.75 gai/ha) it was 75%; with Digitaria sanguinalis (pyroxsulam solo 7.5 gai/ha) it was 80%; in the experiment with Bromus sterilis (setting [2]) it was 60%; in the experiment on Bromus sterilis (pyroxsulam solo 1.875 gai/ha), 60%. The “% activity” value in the experiment with Bromus sterilis (pyroxsulam solo 3.75 gai/ha) is 70%; in the experiment with Bromus sterilis (pyroxsulam solo 7.5 gai/ha), 75%; with Setaria viridis (setting [2]) it was 75%; with Setaria viridis (pyroxsulam solo 1.875 gai/ha), 75%; in the experiment with Lolium multiflorum (pyroxsulam solo 1.875 gai/ha), 60% and 80%; with Lolium multiflorum (pyroxsulam solo 3.75 gai/ha), 65%. The “% activity” value is 80% in the experiment on Lolium multiflorum (pyroxsulam solo 7.5 gai/ha); 20% with Brachiaria decumbens (setting [2]); 20% in the experiment on Brachiaria decumbens (pyroxsulam solo 1.875 gai/ha); 75% in the experiment on Brachiaria decumbens (pyroxsulam solo 3.75 gai/ha); 0% with Papaver rhoeas (PAPRH, solo pyroxsulam (SC 30 g/l) 1.875 gai/ha); 0% in the experiment with Papaver rhoeas (PAPRH, solo pyroxsulam (SC 30 g/l) 3.75 gai/ha). The “% activity” value in the experiment with Papaver rhoeas (PAPRH, solo pyroxsulam (SC 30 g/l) 7.5 gai/ha) stood at 30%; with Papaver rhoeas (PAPRH, solo pyroxsulam (SC 30 g/l) 15 gai/ha), 70%; with Papaver rhoeas (pyroxsulam solo 1.875 gai/ha, PAPRH), 0%; in the experiment on Papaver rhoeas (pyroxsulam solo 3.75 gai/ha, PAPRH), 0%; in the experiment on Papaver rhoeas (pyroxsulam solo 7.5 gai/ha, PAPRH), 30%; with Papaver rhoeas (pyroxsulam solo 15 gai/ha, PAPRH), 70%. Also, the “% activity” value with Galium aparine (setting [2]) is recorded as 60%; in the experiment with Galium aparine (setting [3]), 65%; in the experiment on Galium aparine (setting [1]), 75%; in the experiment on Galium aparine (pyroxsulam solo 1.875 gai/ha), 60%; in the experiment with Galium aparine (pyroxsulam solo 3.75 gai/ha), 65%; in the experiment on Galium aparine (pyroxsulam solo 7.5 gai/ha), 75%. In addition, the “% activity” value in the experiment on Galium aparine (pyroxsulam solo 15 gai/ha) is given as 90%; in the experiment with Ambrosia elatior (pyroxsulam solo 1.875 gai/ha, AMBEL), 70%; in the experiment on Matricaria chamomilla (setting [2]) it was 30%; with Matricaria chamomilla (setting [3]) it was 60%; in the experiment on Matricaria chamomilla (solo pyroxsulam (SC 30 g/l) 15 gai/ha) it was 80%; with Matricaria chamomilla (pyroxsulam solo 1.875 gai/ha), 30%. Further, the “% activity” value was 60% in the experiment with Matricaria chamomilla (pyroxsulam solo 3.75 gai/ha) and 80% with Matricaria chamomilla (pyroxsulam solo 15 gai/ha).

A word on the inhibition: it is the share of the control response that was lost under treatment. What is called pest or weed control is the degree to which the test organism was suppressed or injured, in per cent.
